What all share (assay type): cell-based
One assay has as its system Alternaria alternata. Nature of the assay: Alternaria alternata in vitro cell test. Particulars: 120 h, 20 ppm of active ingredient, 5 days incubation, liquid culture, spectrometric measurement of mycelium growth, read-out: efficacy (inhibition of fungal growth). Here is the method:
(§1) • Solvent: DMSO • Culture medium: 14.6 g anhydrous D-glucose (VWR), 7.1 g Mycological Peptone (Oxoid), 1.4 g granulated Yeast Extract (Merck), QSP 1 liter • Inoculum: spore suspension Fungicides were solubilized in DMSO and the solution used to prepare the required range of concentrations. […] A spore suspension of A. alternata was prepared and diluted to the desired spore density. Fungicides were evaluated for their ability to inhibit spore germination and mycelium growth in liquid culture assay. The compounds were added in the desired concentration to the culture medium with spores. After 5 days incubation, fungi-toxicity of compounds was determined by spectrometric measurement of mycelium growth. Inhibition of fungal growth was determined by comparing the absorbance values in wells containing the fungicides with the absorbance in control wells without fungicides.

For a further assay, the system named is Pyrenophora teres. Put plainly: Pyrenophora teres in vitro cell test. Particulars: 144 h, 20 ppm of active ingredient, 6 days incubation, liquid culture, spectrometric measurement of mycelium growth, read-out: efficacy (inhibition of fungal growth). Here is the method: as §1, with “P. teres” for “A. alternata”, “6” for “5”
A further assay relates to Septoria tritici. Nature of the assay: Septoria tritici in vitro cell test. Particulars: Zymoseptoria tritici, 168 h; 20 ppm of active ingredient; 7 days incubation; liquid culture, spectrometric measurement of mycelium growth; read-out: efficacy (inhibition of fungal growth). Here is the method:
• Solvent: DMSO • Culture medium: 1 g KH2PO4 (VWR), 1 g K2HPO4 (VWR), 0.5 g Urea (VWR), 3 g KNO3 (Prolabo), 10 g saccharose (VWR), 0.5 g MgSO4, 7H2O (Sigma), 0.07 g CaCl2, 2H2O (Prolabo), 0.2 mg MnSO4, H2O (Sigma), 0.6 mg CuSO4, 5H2O (Sigma), 7.9 mg ZnSO4, 7H2O (Sigma), 0.1 mg H3BO3 (Merck), 0.14 mg NaMoO4, 2H2O (Sigma), 2 mg thiamine (Sigma), 0.1 mg biotine (VWR), 4 mg FeSO4, 7H2O (Sigma), QSP 1 liter • Inoculum: spore suspension Fungicides were solubilized in DMSO and the solution used to prepare the required range of concentrations. […] A spore suspension of S. tritici was prepared and diluted to the desired spore density. Fungicides were evaluated for their ability to inhibit spore germination and mycelium growth in liquid culture assay. The compounds were added in the desired concentration to the culture medium with spores. […] Inhibition of fungal growth was determined by comparing the absorbance values in wells containing the fungicides with the absorbance in control wells without fungicides.

Take `Cc1ccc(CC2CON=C(c3nc(C4CC4)ncc3Oc3cccc(C(F)(F)F)c3)N2)c(C)c1` (racemic) [Compound I-001, (5RS)-3-{2-cyclopropyl-5-[3-(trifluoro-methyl)phenoxy]pyrimidin-4-yl}-5-(2,4-dimethylbenzyl)-5,6-dihydro-4H-1,2,4-oxadiazine]: the inhibition at 20 ppm in the assay on Alternaria alternata, in the assay with Pyrenophora teres and in the assay with Septoria tritici was 90 to 100% throughout.
On to `Cc1ccc(CC2CON=C(c3nc(C)ncc3Oc3cccc(C(F)(F)F)c3)N2)c(C)c1` (racemic) [Compound I-002, (5RS)-5-(2,4-dimethylbenzyl)-3-{2-methyl-5-[3-(trifluoro-methyl)phenoxy]pyrimidin-4-yl}-5,6-dihydro-4H-1,2,4-oxadiazine], for which the inhibition at 20 ppm in the assay with Alternaria alternata, in the assay with Pyrenophora teres and with Septoria tritici was 90 to 100% throughout.
In the case of `Cc1cccc(Oc2cnc(C)nc2C2=NOC[C@@H](Cc3ccc(C)cc3C)N2)c1` (racemic) [Compound I-004], the inhibition at 20 ppm with Alternaria alternata, with Pyrenophora teres and in the assay with Septoria tritici was 90 to 100% in each case.
In the case of `Cc1ccc(C[C@@H]2CON=C(c3nc(C)ncc3Oc3cccc(Cl)c3F)N2)c(Cl)c1` (racemic) [Compound I-005], the inhibition at 20 ppm in the assay with Alternaria alternata, in the assay on Pyrenophora teres and with Septoria tritici was 90 to 100% throughout.
As to `C=Cc1ccc(C[C@@H]2CON=C(c3nc(C)ncc3Oc3cccc(C(F)(F)F)c3)N2)c(C)c1` (racemic) [Compound I-006], the inhibition at 20 ppm in the assay with Alternaria alternata, in the assay with Pyrenophora teres and in the assay on Septoria tritici was 90 to 100% each time.
On to `Cc1ccc(C[C@@H]2CON=C(c3nc(C)ncc3Oc3cccc(C4CC4)c3F)N2)c(Cl)c1` (racemic) [Compound I-008], for which the inhibition at 20 ppm in the assay with Alternaria alternata, in the assay on Pyrenophora teres and with Septoria tritici was 90 to 100% each time.
`Cc1ccc(C[C@@H]2CON=C(c3nc(C)ncc3Oc3cccc(Br)c3)N2)c(C)c1` (racemic) [Compound I-009]: the inhibition at 20 ppm in the assay with Alternaria alternata, in the assay with Pyrenophora teres and in the assay with Septoria tritici was 90 to 100% each time.
Consider `Cc1ccc(C[C@@H]2CON=C(c3nc(C)ncc3Oc3cccc(C(F)(F)F)c3)N2)c(Cl)c1` (racemic) [Compound I-013], for which the inhibition at 20 ppm in the assay with Alternaria alternata, in the assay on Pyrenophora teres and in the assay with Septoria tritici was 90 to 100% each time.
As for `Cc1ccc(C[C@@H]2CON=C(c3nc(C)ncc3Oc3cccc(C4CC4)c3F)N2)c(C)c1` (racemic) [Compound I-016], the inhibition at 20 ppm in the assay with Alternaria alternata, in the assay with Pyrenophora teres and in the assay with Septoria tritici was 90 to 100% throughout.
For `CSc1ncc(Oc2cccc(C(F)(F)F)c2)c(C2=NOC[C@@H](Cc3ccc(C)cc3C)N2)n1` (racemic) [Compound I-017], the inhibition at 20 ppm lay in the range of 70 to 79% with Alternaria alternata, 90 to 100% in the assay with Pyrenophora teres and 70 to 79% in the assay with Septoria tritici.
As to `Cc1ccc(C[C@@H]2CON=C(c3nc(C)ncc3Oc3cccc(Cl)c3)N2)c(Cl)c1` (racemic) [Compound I-018], the inhibition at 20 ppm with Alternaria alternata, in the assay on Pyrenophora teres and in the assay with Septoria tritici was 90 to 100% in each case.
As for `C=Cc1cccc(Oc2cnc(C)nc2C2=NOC[C@@H](Cc3ccc(C)cc3C)N2)c1` (racemic) [Compound I-019], the inhibition at 20 ppm in the assay with Alternaria alternata, in the assay with Pyrenophora teres and in the assay with Septoria tritici was 90 to 100% throughout.
Regarding `Cc1ncc(Oc2cccc(C(F)(F)F)c2)c(C2=NOCC(Cc3ccc(Br)cc3C)N2)n1` (racemic) [Compound I-021, (5RS)-5-[(4-bromo-2-methyl-phenyl)methyl]-3-[2-methyl-5-[3-(trifluoro-methyl)phenoxy]pyrimidin-4-yl]-5,6-dihydro-4H-1,2,4-oxadiazine], the inhibition at 20 ppm in the assay on Alternaria alternata, in the assay with Pyrenophora teres and in the assay with Septoria tritici was 90 to 100% throughout.
For the compound `Cc1ccc(C[C@@H]2CON=C(c3nc(C)ncc3Oc3cccc(Cl)c3)N2)c(C)c1` (racemic) [Compound I-023], the figures for the inhibition at 20 ppm in the assay with Alternaria alternata, with Pyrenophora teres and in the assay with Septoria tritici were 90 to 100%, 90 to 100% and 80 to 89%, respectively.
In the case of `Cc1ccc(C[C@@H]2CON=C(c3nc(C)ncc3Oc3cccc(C4CC4)c3)N2)c(C)c1` (racemic) [Compound I-024], the inhibition at 20 ppm in the assay with Alternaria alternata, with Pyrenophora teres and in the assay on Septoria tritici was 90 to 100% throughout.
With `C#Cc1cccc(Oc2cnc(C)nc2C2=NOC[C@@H](Cc3ccc(C)cc3C)N2)c1` (racemic) [Compound I-025], the inhibition at 20 ppm in the assay with Alternaria alternata, in the assay on Pyrenophora teres and in the assay on Septoria tritici was 90 to 100% each time.
Regarding `C#Cc1ccc(CC2CON=C(c3nc(C)ncc3Oc3cccc(C(F)(F)F)c3)N2)c(C)c1` (racemic) [Compound I-026, (5RS)-5-[(4-ethynyl-2-methyl-phenyl)methyl]-3-[2-methyl-5-[3-(trifluoromethyl)phenoxy]pyrimidin-4-yl]-5,6-dihydro-4H-1,2,4-oxadiazine], the inhibition at 20 ppm in the assay with Alternaria alternata, in the assay with Pyrenophora teres and in the assay on Septoria tritici was 90 to 100% throughout.
`Cc1ncc(Oc2cccc(C(F)(F)F)c2)c(C2=NOCC(Cc3ccc(C4CC4)cc3C)N2)n1` (racemic) [Compound I-029, (5RS)-5-[(4-cyclopropyl-2-methyl-phenyl)methyl]-3-[2-methyl-5-[3-(trifluoromethyl)phenoxy]pyrimidin-4-yl]-5,6-dihydro-4H-1,2,4-oxadiazine]: the inhibition at 20 ppm with Alternaria alternata, in the assay with Pyrenophora teres and in the assay with Septoria tritici was 90 to 100% in each case.
For the compound `Cc1ncc(Oc2cccc(C(F)(F)F)c2)c(C2=NOC[C@@H](Cc3ccc(SC(F)(F)F)cc3)N2)n1` (racemic) [Compound I-030], the values for the inhibition at 20 ppm in the assay with Alternaria alternata, in the assay on Pyrenophora teres and in the assay on Septoria tritici were 80 to 89%, 90 to 100% and 70 to 79%, respectively.
In the case of `COc1cccc(Oc2cnc(C)nc2C2=NOC[C@@H](Cc3ccc(C)cc3C)N2)c1` (racemic) [Compound I-032], the inhibition at 20 ppm in the assay with Alternaria alternata, in the assay with Pyrenophora teres and in the assay with Septoria tritici was 90 to 100% in each case.
Consider `Cc1ncc(Oc2cccc(C(F)(F)F)c2)c(C2=NOC[C@@H](Cc3ccc(C(F)F)cc3Cl)N2)n1` (racemic) [Compound I-033], for which the inhibition at 20 ppm in the assay on Alternaria alternata, in the assay on Pyrenophora teres and in the assay on Septoria tritici was 90 to 100% throughout.

As usually defined, the inhibition is the share of the control response that was lost under treatment.

These data come from US12565489B2, “Heterocyclyl pyrimidines and triazines as novel fungicides” (Bayer Aktiengesellschaft, priority 2020, dated 2026).
